Some test systems named below: 786-0; BT-549; COLO 205; DU-145; HCT-116; HL-60; HOP-62; HT-29; IGROV-1; MCF7; MDA-MB-231; MOLT-4; NCI/ADR-RES; OVCAR-3; SF-268; SN12C; UACC-257; SR; T47D; NCI-H522.
Common to all, as to experiment: inhibition of tumour cell growth, NCI panel, 48 h

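In this assay, cells in 96-well plates receive the compound at five concentrations for 48 hours. Endpoints are linearly interpolated between the surrounding concentrations. GI50 is the concentration that inhibits growth by half.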 Active and inactive are the calls of the source. No stated cut-off is given here; in the data, active = GI50 up to about 1.1 µM and inactive = higher.

Regarding `CNc1nnc(CNc2ccc(-c3nnc(NC)n3N)cc2)n1N`, the GI50 is > 100 µM (inactive) with 786-0; 12.4 µM (inactive) in the assay with BT-549; > 100 µM (inactive) in the assay on COLO 205; > 100 µM (inactive) in the assay with DU-145; > 100 µM (inactive) with HCT-116; 39.5 µM (inactive) with HL-60. The GI50 with HOP-62, with HT-29, in the assay on IGROV-1, in the assay on MCF7, in the assay with MDA-MB-231 and in the assay on MOLT-4 was > 100 µM (inactive) in each case. Moreover, the GI50 in the assay on NCI/ADR-RES, in the assay with OVCAR-3, in the assay with SF-268, in the assay with SN12C and in the assay with UACC-257 was > 100 µM (inactive) throughout.
For the compound `BrC(=C(c1ccc(OC2CCCCO2)cc1)c1ccc(OC2CCCCO2)cc1)c1ccccc1` (configuration not stated), the GI50 in the assay on 786-0, in the assay on COLO 205, in the assay on DU-145, in the assay on HCT-116, in the assay on HL-60 and with HOP-62 was > 100 µM (inactive) each time. Moreover, the GI50 in the assay with HT-29, in the assay with IGROV-1, in the assay on MCF7, in the assay with MDA-MB-231, in the assay with MOLT-4 and in the assay with NCI/ADR-RES was > 100 µM (inactive) throughout. The GI50 in the assay on OVCAR-3, with SF-268, in the assay with SN12C, in the assay on SR, in the assay with T47D and in the assay with UACC-257 was > 100 µM (inactive) each time.
Consider `Clc1cccc(/N=C/C=C/Nc2cccc(Cl)c2)c1`, for which the GI50 is 15.7 µM (inactive) in the assay on 786-0; 16.1 µM (inactive) in the assay on BT-549; 16.3 µM (inactive) in the assay with COLO 205; 29 µM (inactive) in the assay with DU-145; 15 µM (inactive) in the assay with HCT-116; 18.9 µM (inactive) in the assay with HL-60. The GI50 in the assay with HOP-62 is 16.8 µM (inactive); in the assay on HT-29 it was 16.7 µM (inactive); with IGROV-1 it was 16 µM (inactive); in the assay on MCF7 it was 18.8 µM (inactive); in the assay on MDA-MB-231, 15.7 µM (inactive); with MOLT-4, 22.2 µM (inactive). Also, the GI50 was 14.8 µM (inactive) in the assay with NCI-H522; 16.9 µM (inactive) with NCI/ADR-RES; 18.3 µM (inactive) in the assay on OVCAR-3; > 10 µM (inactive) in the assay on SF-268; 14 µM (inactive) with SN12C; 24.2 µM (inactive) in the assay with SR. Also, the GI50 in the assay on UACC-257 was 16.6 µM (inactive).
Turning to `C/C(=N\O)c1ccc2ccc3ccccc3c2c1`, the GI50 with 786-0 is > 100 µM (inactive); in the assay with COLO 205, 37.3 µM (inactive); with DU-145, 33.3 µM (inactive); in the assay with HCT-116, 90.6 µM (inactive); with HL-60 it was 22.2 µM (inactive); in the assay on HOP-62, > 100 µM (inactive). For the same compound, the GI50 in the assay on HT-29 is 28.3 µM (inactive); in the assay with IGROV-1, 44 µM (inactive); in the assay with MCF7 it was 41.1 µM (inactive); with MDA-MB-231, 28.1 µM (inactive); in the assay on MOLT-4, 18.5 µM (inactive); with NCI-H522 it was 29.9 µM (inactive). Moreover, the GI50 in the assay with NCI/ADR-RES was 31.3 µM (inactive); in the assay on OVCAR-3, 34.2 µM (inactive); with SF-268, 44.9 µM (inactive); in the assay with SN12C, 30.8 µM (inactive); with SR, 21.8 µM (inactive); in the assay on T47D, 56.6 µM (inactive). Also, the GI50 in the assay on UACC-257 is 22.9 µM (inactive).
Turning to `CC(CO)CCC(O)C(C)(O)C1CCC2(O)C3=CC(=O)C4CC(O)C(O)CC4(C)C3CCC12C` (configuration not stated), the GI50 with 786-0, in the assay on BT-549, in the assay with COLO 205, in the assay on DU-145, in the assay with HCT-116 and in the assay on HL-60 was > 100 µM (inactive) throughout. For the same compound, the GI50 in the assay with HOP-62, with HT-29, with MCF7, in the assay on MDA-MB-231, in the assay with MOLT-4 and with NCI-H522 was > 100 µM (inactive) in each case. Besides, the GI50 with NCI/ADR-RES, in the assay on OVCAR-3, in the assay with SN12C, with SR and in the assay with UACC-257 was > 100 µM (inactive) throughout.
Consider `C=C1CC(c2ccc(OCCCN3C(=O)c4ccccc4C3=O)c(OC)c2)OC1=O` (configuration not stated), for which the GI50 in the assay with 786-0 is 4.1 µM (inactive); in the assay on COLO 205, 1.4 µM (inactive); in the assay on DU-145, 11.9 µM (inactive); with HCT-116 it was 1.6 µM (inactive); with HL-60, 1.25 µM (inactive); with HOP-62, 15.6 µM (inactive). Moreover, the GI50 in the assay with HT-29 was 2.58 µM (inactive); in the assay on IGROV-1 it was 2.56 µM (inactive); in the assay on MCF7 it was 0.218 µM (active); in the assay with MDA-MB-231, 9.25 µM (inactive); in the assay with MOLT-4, 0.615 µM (active); in the assay with NCI-H522, 0.514 µM (active). In addition, the GI50 is 17.9 µM (inactive) in the assay with NCI/ADR-RES; 2.21 µM (inactive) with OVCAR-3; 8.09 µM (inactive) in the assay on SF-268; 6.82 µM (inactive) in the assay with SN12C; 0.973 µM (active) in the assay with SR; 2.56 µM (inactive) in the assay on T47D. In addition, the GI50 with UACC-257 was 3.63 µM (inactive).
Take `COc1cc(C2c3cc4c(c(O)c3C(=O)C3CCC(=O)N32)OCO4)cc(OC)c1OC` (configuration not stated): the GI50 in the assay with 786-0 is 92.5 µM (inactive); in the assay on BT-549, 32.7 µM (inactive); in the assay with COLO 205, 5.52 µM (inactive); in the assay with DU-145, > 100 µM (inactive); in the assay with HCT-116, 56.4 µM (inactive); in the assay on HL-60 it was 45 µM (inactive). Besides, the GI50 in the assay on HOP-62 was 82.8 µM (inactive); in the assay on HT-29, 42.9 µM (inactive); in the assay on IGROV-1, 61.9 µM (inactive); in the assay with MCF7, 77.1 µM (inactive); with MOLT-4, 37.9 µM (inactive); with NCI-H522, 16.9 µM (inactive). Besides, the GI50 in the assay with NCI/ADR-RES was 89.1 µM (inactive); in the assay with OVCAR-3, 68.1 µM (inactive); with SF-268, 57 µM (inactive); with SN12C, > 100 µM (inactive); in the assay on SR, 44.8 µM (inactive); in the assay on T47D, 99.5 µM (inactive). The GI50 with UACC-257 was > 100 µM (inactive).
In the case of `CC1(C)C2CC(c3ccncc3)ON2C(C)(C)N1O` (configuration not stated), the GI50 in the assay with 786-0, in the assay with COLO 205, with DU-145, in the assay on HCT-116, with HL-60 and in the assay on HOP-62 was > 100 µM (inactive) throughout. Besides, the GI50 with HT-29, with IGROV-1, in the assay with MCF7, with MDA-MB-231, in the assay on MOLT-4 and in the assay on NCI/ADR-RES was > 100 µM (inactive) each time. The GI50 in the assay on OVCAR-3, in the assay on SF-268, in the assay on SN12C, in the assay on SR, in the assay on T47D and in the assay with UACC-257 was > 100 µM (inactive) each time.
On to `Cc1nc2sccn2c1C(=O)OCCOCCOCCOCCOC(=O)c1c(C)nc2sccn12`, for which the GI50 is > 100 µM (inactive) with 786-0; 34.6 µM (inactive) in the assay on BT-549; 86.7 µM (inactive) with COLO 205; > 100 µM (inactive) with DU-145; > 100 µM (inactive) with HCT-116; 15.7 µM (inactive) in the assay on HL-60. In addition, the GI50 in the assay with HOP-62 is > 100 µM (inactive); with HT-29 it was > 100 µM (inactive); with IGROV-1, > 100 µM (inactive); in the assay on MCF7, 61.5 µM (inactive); with MDA-MB-231 it was > 100 µM (inactive); in the assay with MOLT-4, 18.2 µM (inactive). The GI50 is 48.8 µM (inactive) in the assay with NCI-H522; 27.9 µM (inactive) with NCI/ADR-RES; > 100 µM (inactive) in the assay with OVCAR-3; > 100 µM (inactive) in the assay on SF-268; > 100 µM (inactive) with SN12C; 45.9 µM (inactive) with SR. The GI50 in the assay with UACC-257 is 16.5 µM (inactive).
For `C[C@]12CC[C@H](O)CC1=CC[C@@H]1[C@@H]2CC[C@]2(C)C(=O)/C(=C/c3ccc([N+](=O)[O-])cc3)C[C@@H]12`, the GI50 is 3.43 µM (inactive) in the assay with 786-0; 23.3 µM (inactive) with BT-549; 13.4 µM (inactive) in the assay on DU-145; 13.7 µM (inactive) in the assay with HCT-116; 36.4 µM (inactive) in the assay on HL-60; 5.9 µM (inactive) in the assay with HOP-62. Further, the GI50 was 25.5 µM (inactive) in the assay on HT-29; 8.73 µM (inactive) in the assay on IGROV-1; 32.2 µM (inactive) with MCF7; > 100 µM (inactive) with MOLT-4; 12.2 µM (inactive) in the assay with NCI-H522; 16.2 µM (inactive) in the assay with NCI/ADR-RES. Further, the GI50 is 15.2 µM (inactive) in the assay on OVCAR-3; 6.85 µM (inactive) with SF-268; 11.2 µM (inactive) in the assay with SN12C; 93.8 µM (inactive) in the assay with SR; 14.3 µM (inactive) in the assay with T47D; 21.1 µM (inactive) in the assay on UACC-257.
In the case of `CC(NC(=O)/C(C#N)=C/c1ccc2[nH]ccc2c1)c1ccccc1` (configuration not stated), the GI50 with 786-0 was 16.7 µM (inactive); with BT-549, 11.2 µM (inactive); with COLO 205 it was 17.1 µM (inactive); in the assay on DU-145, 16.7 µM (inactive); in the assay on HCT-116, 14.9 µM (inactive); with HL-60, 18.7 µM (inactive). Moreover, the GI50 with HOP-62 is 18.2 µM (inactive); in the assay on HT-29, 17.5 µM (inactive); in the assay on IGROV-1 it was 17.2 µM (inactive); with MCF7 it was 20.9 µM (inactive); with MOLT-4 it was 20.8 µM (inactive); in the assay with NCI-H522, 12.8 µM (inactive). For the same compound, the GI50 in the assay on NCI/ADR-RES was 28.8 µM (inactive); with OVCAR-3, 24.9 µM (inactive); in the assay on SF-268, 21.5 µM (inactive); with SN12C, 18.7 µM (inactive); with SR, 24.2 µM (inactive); with T47D, 20.3 µM (inactive). In addition, in the assay on UACC-257, the GI50 was 21.3 µM (inactive).

Values taken from ChEMBL document CHEMBL1201862, “PubChem BioAssay data set” (2004).
